pIC50: −log10 of the molar value. Like-named read-outs stand apart in the source and are kept apart here.
Legend:
MDR1-MDCK cells = assay: MDR1-MDCK effective efflux assay (Transwell, 10 μM, 1 hour), MDR1-MDCK cells; type: in vitro ADME; conditions: for Papp AB MDR1: MDR1-MDCK cells, apical to basolateral (A>B), 10 μM, 1 hour; for MDR1 EER / MDR1 ER: MDCK-MDR1
How it was run: (§1)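 Wild-type and MDR1-MDCK monolayers cultured 3 days were dosed with compound at 10 μM (0.1% DMSO) in HBSS/25 mM HEPES pH 7.4, in both A>B and B>A directions, for 1 h at 37 °C. Samples were quantified by LC-MS/MS to give Papp and efflux ratio. Effective efflux ratio = ER(MDR1-MDCK)/ER(wild-type); Lucifer Yellow checked monolayer integrity.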

[1] = system: wild-type (WT) MDCK cells; assay: MDR1-MDCK effective efflux assay (Transwell, 10 μM, 1 hour), wild-type MDCK cells; type: in vitro ADME; conditions: for Papp AB WT: wild-type MDCK cells, apical to basolateral (A>B), 10 μM, 1 hour; for WT ER: MDCK
How it was run: as §1

[2] = biological target: human Oxytocin Receptor (hOTR) (Homo sapiens (Human), UniProt P30559); assay: Oxytocin receptor antagonist assay (oxytocin-evoked calcium, FLIPR, CHEM-1-hOTR cells); type: cell-based; conditions: read-out: OT IC50
human Oxytocin Receptor (hOTR), sequence (P30559 whole entry): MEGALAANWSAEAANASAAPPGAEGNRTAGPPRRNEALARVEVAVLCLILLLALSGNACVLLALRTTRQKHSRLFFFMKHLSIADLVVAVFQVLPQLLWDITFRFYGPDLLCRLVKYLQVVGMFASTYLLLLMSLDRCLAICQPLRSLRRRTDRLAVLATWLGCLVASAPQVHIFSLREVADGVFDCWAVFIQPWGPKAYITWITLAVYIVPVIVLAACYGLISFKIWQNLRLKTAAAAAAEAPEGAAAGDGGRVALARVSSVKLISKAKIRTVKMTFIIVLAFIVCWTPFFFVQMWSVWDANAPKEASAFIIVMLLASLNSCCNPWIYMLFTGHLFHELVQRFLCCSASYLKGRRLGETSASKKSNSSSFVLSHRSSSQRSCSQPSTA
How it was run: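 Antagonist mode in CHEM-1-hOTR cells loaded with Calcium-6 dye; compounds (10-point, 1:3 series) preincubated 15 min at 37 °C, then oxytocin added at daily-determined EC80 in HBSS/20 mM HEPES with 0.1% BSA. Fluorescence (ex 470-495, em 515-575 nm) followed 3 min on FLIPR^TETRA; concentration-dependent reduction of oxytocin response measured.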

[3] = biological target: human Arginine Vasopressin Receptor V2 (AVPR2) (Homo sapiens (Human), UniProt P30518); assay: Vasopressin V2 receptor antagonist assay (cAMP TR-FRET, 1321N1 cells); type: cell-based
human Arginine Vasopressin Receptor V2 (AVPR2), sequence (P30518 whole entry): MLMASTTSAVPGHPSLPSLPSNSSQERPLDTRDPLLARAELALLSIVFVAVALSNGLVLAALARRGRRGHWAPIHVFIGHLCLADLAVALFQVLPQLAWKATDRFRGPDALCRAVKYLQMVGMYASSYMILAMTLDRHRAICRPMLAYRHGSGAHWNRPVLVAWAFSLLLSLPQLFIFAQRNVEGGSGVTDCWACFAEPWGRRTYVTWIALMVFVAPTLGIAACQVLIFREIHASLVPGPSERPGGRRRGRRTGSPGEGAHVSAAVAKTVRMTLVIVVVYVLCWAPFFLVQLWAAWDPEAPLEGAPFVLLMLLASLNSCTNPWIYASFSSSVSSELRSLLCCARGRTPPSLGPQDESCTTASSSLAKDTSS

[4] = MDR1-MDCK effective efflux assay (Transwell, 10 μM, 1 hour), wild-type MDCK cells; type: in vitro ADME; conditions: dog, MDCK
How it was run: as §1

[5] = pH 7.4, wild-type MDCK cells, apical to basolateral (A>B), 10 μM, 1 hour, read-out: Papp AB WT

Compound	Papp AB MDR1 (MDR1-MDCK cells)	Papp AB WT [1]	pIC50 [2]	pIC50 [3]	MDR1 EER (MDR1-MDCK cells)	MDR1 ER (MDR1-MDCK cells)	Papp A→B at 1 h, 10 μM ([4]; pH 7.4, Papp AB WT) [×10⁻⁶ cm/s]	WT ER [1]	Papp A→B at 1 h, 10 μM [4, 5] [×10⁻⁶ cm/s]
COC(=O)N1Cc2cc(Cl)ccc2-n2c(C3CC4(C3)CN(c3ccc(F)cn3)C4)nnc2C1C (single isomer, unassigned) [142A]	++++ ((++++) denotes >20 (10^-6 cm/sec))	++++ ((++++) denotes >20 (10^-6 cm/sec))	< 6.00	< 6.00	–	–	–	–	–
COC(=O)N1Cc2cc(Cl)ccc2-n2c(C3CC4(C3)CN(c3cnccn3)C4)nnc2C1C (single isomer, unassigned) [Cpd 165A]	+ ((+) denotes an apparent permeability <7 (10^-6 cm/sec))	++++ ((++++) denotes >20 (10^-6 cm/sec))	6.00 to 6.30	< 6.00	–	–	–	–	–
CC(C)OC(=O)N1Cc2cc(Cl)ccc2-n2c(C3CC4(C3)CN(c3ncccn3)C4)nnc2C1C (single isomer, unassigned) [Cpd 167A]	++++ ((++++) denotes >20 (10^-6 cm/sec))	++++ ((++++) denotes >20 (10^-6 cm/sec))	6.00 to 6.30	< 6.00	–	–	–	–	–
CCOC(=O)N1Cc2cc(Cl)ccc2-n2c(C3CC4(C3)CN(c3ncccn3)C4)nnc2C1C (single isomer, unassigned) [Cpd 168A]	++++ ((++++) denotes >20 (10^-6 cm/sec))	++++ ((++++) denotes >20 (10^-6 cm/sec))	6.00 to 6.30	< 6.00	–	–	–	–	–
CCOC(=O)N1Cc2cc(Cl)ccc2-n2c(C3CC4(C3)CN(c3ccc(F)cn3)C4)nnc2C1C (single isomer, unassigned) [Cpd 169A]	++++ ((++++) denotes >20 (10^-6 cm/sec))	++++ ((++++) denotes >20 (10^-6 cm/sec))	6.30 to 7.00	< 6.00	–	–	–	–	–
CC1c2nnc(C3CC4(C3)CN(c3ncccn3)C4)n2-c2ccc(Cl)cc2CN1C(=O)OC1CC1 (single isomer, unassigned) [Cpd 171A]	+ ((+) denotes an apparent permeability <7 (10^-6 cm/sec))	++++ ((++++) denotes >20 (10^-6 cm/sec))	< 6.00	< 6.00	–	–	–	–	–
CC1c2nnc(C3CC4(C3)CN(c3ccc(F)cn3)C4)n2-c2ccc(Cl)cc2CN1C(=O)C1(F)CC1 (single isomer, unassigned) [Cpd 174A]	++++ ((++++) denotes >20 (10^-6 cm/sec))	++++ ((++++) denotes >20 (10^-6 cm/sec))	6.30 to 7.00	< 6.00	–	–	–	–	–
CC1c2nnc(C3CC4(C3)CN(c3ccc(F)cn3)C4)n2-c2ccc(Cl)cc2CN1C(=O)C(C)(C)F (single isomer, unassigned) [Cpd 178A]	++++ ((++++) denotes >20 (10^-6 cm/sec))	++++ ((++++) denotes >20 (10^-6 cm/sec))	6.30 to 7.00	6.30 to 7.00	–	–	–	–	–
CC1c2nnc(C3CC4(C3)CN(c3ccccn3)C4)n2-c2ccc(Cl)cc2CN1C(=O)C1(F)CC1 (single isomer, unassigned) [Cpd 181A]	++++ ((++++) denotes >20 (10^-6 cm/sec))	++++ ((++++) denotes >20 (10^-6 cm/sec))	6.30 to 7.00	6.30 to 7.00	–	–	–	–	–
CC1c2nnc(C3CC4(C3)CN(c3ccc(F)cn3)C4)n2-c2ccc(Cl)cc2CN1C(=O)OC1CC1 (single isomer, unassigned) [Cpd 191A]	++++ ((++++) denotes >20 (10^-6 cm/sec))	++++ ((++++) denotes >20 (10^-6 cm/sec))	6.30 to 7.00	< 6.00	–	–	–	–	–
CC1c2nnc(C3CC4(C3)CN(c3ncc(F)cn3)C4)n2-c2ccc(Cl)cc2CN1C(=O)OC1CC1 (single isomer, unassigned) [Cpd 192A]	++++ ((++++) denotes >20 (10^-6 cm/sec))	++++ ((++++) denotes >20 (10^-6 cm/sec))	< 6.00	< 6.00	–	–	–	–	–
CC(C)OC(=O)N1Cc2cc(Cl)ccc2-n2c(C3CC4(C3)CN(c3ncc(F)cn3)C4)nnc2C1C (single isomer, unassigned) [Cpd 201A]	++++ ((++++) denotes >20 (10^-6 cm/sec))	++++ ((++++) denotes >20 (10^-6 cm/sec))	–	< 6.00	–	–	–	–	–
CC1c2nnc(C3CC4(C3)CN(c3ncccn3)C4)n2-c2ccc(Cl)cc2CN1C(=O)OC(CF)CF (single isomer, unassigned) [Cpd 202A]	+ ((+) denotes an apparent permeability <7 (10^-6 cm/sec))	++++ ((++++) denotes >20 (10^-6 cm/sec))	< 6.00	< 6.00	–	–	–	–	–
CN1Cc2cc(Cl)ccc2-n2c(nnc2C2CC3(C2)CN(c2ccc(F)cn2)C3)C1 [compound 1, 8-chloro-1-(2-(5-fluoropyridin-2-yl)-2-azaspiro[3.3]heptan-6-yl)-5-methyl-5,6-dihydro-4H-benzo[f][1,2,4]triazolo[4,3-a][1,4]diazepine]	–	–	< 6.00	< 6.00	+	+	> 20	++	–
CN1Cc2cc(Cl)ccc2-n2c(nnc2C2CC3(C2)CN(c2cccc(F)n2)C3)C1 [compound 8]	–	–	< 6.00	< 6.00	+++	+++	> 20	++++	–
Clc1ccc2c(c1)CN(C1COC1)Cc1nnc(C3CC4(C3)CN(c3ccccn3)C4)n1-2 [compound 57, 8-chloro-5-(oxetan-3-yl)-1-(2-(pyridin-2-yl)-2-azaspiro[3.3]heptan-6-yl)-5,6-dihydro-4H-benzo[f][1,2,4]triazolo[4,3-a][1,4]diazepine]	–	–	< 6.00	< 6.00	+	+	> 20	+++	–
CCC(=O)N1Cc2cc(Cl)ccc2-n2c(nnc2C2CC3(C2)CN(c2ccccn2)C3)C1 [compound 67]	–	–	< 6.00	< 6.00	+	+	> 20	+++	–
CC(C)C(=O)N1Cc2cc(Cl)ccc2-n2c(nnc2C2CC3(C2)CN(c2ccccn2)C3)C1 [compound 71]	–	–	< 6.00	< 6.00	+	+	> 20	++++	–
O=C(N1Cc2cc(Cl)ccc2-n2c(nnc2C2CC3(C2)CN(c2cnccn2)C3)C1)C1(F)CC1 [compound 81]	–	–	< 6.00	< 6.00	+	+	> 20	+++	–
O=C(C1CC1)N1CC2(CC(c3nnc4n3-c3ccc(Cl)cc3CN(C(=O)C3(F)CC3)C4)C2)C1 [compound 136]	–	–	< 6.00	< 6.00	+	+	10 to 20	+	–
COC(=O)N1Cc2cc(Cl)ccc2-n2c(C3CC4(C3)CN(c3ccc(F)cn3)C4)nnc2C1C (stereo not drawn) [compound 142, methyl 8-chloro-1-(2-(5-fluoropyridin-2-yl)-2-azaspiro[3.3]heptan-6-yl)-4-methyl-4H-benzo[f][1,2,4]triazolo[4,3-a][1,4]diazepine-5(6H)-carboxylate]	–	–	6.00 to 6.30	< 6.00	+	++	> 20	++++	–
CC(C)OC(=O)N1Cc2cc(Cl)ccc2-n2c(nnc2C2CC3(C2)CN(C(=O)C2CC2)C3)C1 [compound 153]	–	–	< 6.00	< 6.00	+	+	> 20	++	–
COC(=O)N1Cc2cc(Cl)ccc2-n2c(C3CC4(C3)CN(c3ncccn3)C4)nnc2C1C (stereo not drawn) [compound 166]	–	–	< 6.00	< 6.00	+	+	> 20	+++	–
CC(C)OC(=O)N1Cc2cc(Cl)ccc2-n2c(C3CC4(C3)CN(c3ncccn3)C4)nnc2C1C (stereo not drawn) [compound 167]	–	–	< 6.00	< 6.00	+++	+++	> 20	+++	–
CCOC(=O)N1Cc2cc(Cl)ccc2-n2c(C3CC4(C3)CN(c3ncccn3)C4)nnc2C1C (stereo not drawn) [compound 168]	–	–	< 6.00	< 6.00	+	+	> 20	+++	–
COC(=O)N1Cc2cc(Cl)ccc2-n2c(C3CC4(C3)CN(c3ncc(F)cn3)C4)nnc2C1C (stereo not drawn) [compound 170]	–	–	< 6.00	< 6.00	+	+	> 20	++++	–
CC1c2nnc(C3CC4(C3)CN(c3ccc(F)cn3)C4)n2-c2ccc(Cl)cc2CN1C(=O)C1(F)CC1 (stereo not drawn) [compound 174]	–	–	6.00 to 6.30	< 6.00	–	–	–	–	> 20
COC(=O)N1Cc2cc(Cl)ccc2-n2c(C3CC4(C3)CN(c3cccc(C)n3)C4)nnc2C1C (stereo not drawn) [compound 180]	–	–	6.30 to 7.00	6.30 to 7.00	–	–	–	–	> 20
COC(=O)N1Cc2cc(Cl)ccc2-n2c(C3CC4(C3)CN(c3ncccc3F)C4)nnc2C1C (stereo not drawn) [compound 182]	–	–	6.00 to 6.30	6.00 to 6.30	–	–	–	–	> 20
